Source: US7538083B2, “Compositions and methods for the potentiation of immune responses against target antigens” (Intercell AG, priority 2003, dated 2009)
Entries after “also recorded” stand apart in the source; their conditions may differ.

How the values were obtained:
[1] = tested on: malaria mimetic UK39 (serum IgG against it); assay: UK39 ELISA of mouse sera after immunization with UK39 IRIV with or without melittin; type: in vivo; conditions: Balb/c mice, UK39 IRIV (20 μg UK39) + 10 μg melittin; sera day 21 and 35, IgG ELISA read at 492 nm
Description: Balb/c mice were immunized with 100 μl PBS containing: the malaria mimetic UK39 (20 μg UK39) in combination with an IRIV with or without 10 μg Melittin. For the UK39 ELISA, ELISA plates were coated over night at 4° C. with 10 μg/ml UK39 in PBS. After washing with PBS 0.05% Tween20 plates were blocked with 5% dry milk in PBS 2 h at 37° C. Mouse sera from day 21 and 35 were initially diluted 1:10 and titrated in serial 1:2 dilutions in PBS 0.05% Tween20 0.5% dry milk. After 2 h incubation at 37° C. plates were washed and incubated with goat […]-mouse IgG HRP Ab (BD Bioscience) (1:5000 in PBS 0.05% Tween20 0.5% dry milk) 1 h 37° C. Plates were developed with OPD-substrate (OPD (O-Phenylenediamine tablets, Fluka, Switzerland, 1 tablet in 50 ml citrate buffer+50 μl H2O2) for 30 min. The reaction was stopped with 1 M H2SO4 and plates were read at 492 nm.
UK39 IRIV: 4 mg UK39, 4 mg influenza A/Singapore, 32 mg phosphatidylcholine (PC) and 8 mg phosphatidylethanolamine (PE) were resuspended in 4 ml 100 mM OEG in PBS (OEG-PBS), sonicated for 1 min and centrifugated for 1 h at 100′000×g at 20° C. […]
UK39 ELISA: ELISA plates were coated over night at 4° C. with 10 μg/ml UK39 in PBS. […] Plates were developed with OPD-substrate (OPD (O-Phenylendiamine tablets, Fluka, Switzerland, 1 tablet in 50 ml citrate buffer+50 μl H2O2) for 30 min. The reaction was stopped with 1 M H2SO4 and plates were read at 492 nm.

[2] = tested on: OVA257-64 peptide specific IFNγ+ CD8+ T cells; parameters: species or system C57Bl/6 mice; conditions: mouse, in vivo
[3] = tested on: IFNγ+ CD8+ T cells specific for T4 peptide VVYDFLKCM (Kb/T404-412); assay: Splenic T4-specific IFNγ+ CD8+ T cell frequency after i.m. vaccination with T4/melittin-derived fusion peptide with or without ODN; type: in vivo, C57BL/6 (B6) mice; conditions: B6 mice, 35 nmol i.m.; for dependence of adjuvant activity on CpG motifs in the ODN: NSS+ ODN-1982 (no CpG) versus ISS+ ODN-1826 (CpG)
Text: The adjuvant activity of the melittin-derived peptide thus acts synergistically even with oligodeoxynucleotides that lack any immunostimulatory sequences. C57BL/6 (B6) mice were either not immunized (group 1) or vaccinated i.m. with 35 nmol of peptides alone (group 2) or mixed with oligodeoxynucleotide (group 3), not containing (A; NSS^+ ODN-1982; SEQ ID NO: 7), or containing (B; ISS^+ ODN-1826; SEQ ID NO: 6) CpG motifs. Spleen cells obtained from immune mice 12 days post vaccination were restimulated ex vivo with the T4 peptide VVYDFLKCM (K^b/T404-412, SEQ ID NO: 4). Mean number of specific IFNγ^+ CD8^+ T cells/10^5 CD8^+ T cells±SD (of 6 mice per group) averaged from two independent experiments are shown.
Fusion of a sample antigen (here, T4 peptide) to the melittin-derived peptide and binding ODN to them creates potent immunogens for CD8^+ T cells. A sample target antigen, the SV40-derived T4 peptide T404-417 VVYDFLKCMVYNIP (SEQ ID NO: 5) was fused to a duplicated amino acid sequence derived from melittin (KRKRQKRKRQ, SEQ ID NO: 2). B6 mice were vaccinated i.m. with 35 nmol of these peptides alone (group 2), or mixed with ODN (group 3), not containing (A; NSS+ ODN-1982), or containing (B; ISS+ ODN-1826) CpG motifs (FIG. 1). Spleen cells obtained from immune mice 12 days post-vaccination were restimulated ex vivo with the T4 peptide VVYDFLKCM (SEQ ID NO: 4) (Kb/T404-412). Mean numbers of specific IFNγ^+ CD8^+ T cells/10^5 CD8^+ T cells±SD (of 6 mice per group) averaged from two independent experiments are shown.
C57BL/6JBom (B6) mice (H-2b) were bred and kept under standard pathogen-free conditions in the animal colony of Ulm University (Ulm, Germany). Male/female mice were used at 12-16 wks of age. The preparation of cationic peptide/ODN vaccines CpG containing ODN-1826 ([…]; ISS-1826, SEQ ID NO: 6) and its control ODN-1982 ([…]; NSS-1982, SEQ ID NO: 7) were obtained from MWG (Ebersberg, Germany). ODN were synthesized with phosphorothioate backbones. […] The number of CD8^+ IFNγ^+ T cells per 10^5 splenic CD8^+ T cells was determined by FCM analyses.

## CC[C@H](C)[C@H](NC(=O)CN)C(=O)NCC(=O)N[C@@H](C)C(=O)N[C@H](C(=O)N[C@@H](CC(C)C)C(=O)N[C@@H](CCCCN)C(=O)N[C@H](C(=O)N[C@@H](CC(C)C)C(=O)N[C@H](C(=O)N[C@H](C(=O)NCC(=O)N[C@@H](CC(C)C)C(=O)N1CCC[C@H]1C(=O)N[C@@H](C)C(=O)N[C@@H](CC(C)C)C(=O)N[C@H](C(=O)N[C@@H](CO)C(=O)N[C@@H](Cc1c[nH]c2ccccc12)C(=O)N[C@H](C(=O)N[C@@H](CCCCN)C(=O)N[C@@H](CCCNC(=N)N)C(=O)N[C@@H](CCCCN)C(=O)N[C@@H](CCCNC(=N)N)C(=O)N[C@@H](CCC(N)=O)C(=O)N[C@@H](CCC(N)=O)C(N)=O)[C@@H](C)CC)[C@@H](C)CC)[C@@H](C)O)[C@@H](C)O)C(C)C)C(C)C [melittin]
[1]
  humoral immune response (B cell immunity) against antigen UK39 coupled to IRIV: adjuvant effect; also recorded: further enhanced

## CKRKRQKRKRQSIINFEKL [Cys-Mel-OVA257-64]
[2]
  adjuvant effect in combination with IRIVs (peptide specific IFNγ+ CD8+ T cells): further potentiated by its combination with IRIVs; also recorded: further synergizes with IRIVs

## KRKRQKRKRQ (Synthetic peptide derived from Apis mellifera)
[3]; combined with target antigen T4 and oligodeoxynucleotide, spleen cells 12 days post vaccination restimulated ex vivo with T4 peptide
  adjuvant activity (specific IFNγ+ CD8+ T cells/10^5 CD8+ T cells): significant adjuvant activity
[3]
  dependence of adjuvant activity on CpG motifs in the ODN: not dependent on the presence of CpG sequences in the ODN
[3]; listed as KRKRQKRKRQ
  dependence of adjuvant activity on CpG motifs in the ODN: does not depend on the presence of CpG motifs
